Patent US20240132484A1, “BROAD SPECTRUM ANTIVIRAL COMPOUNDS TARGETING THE SKI COMPLEX” (priority 2020, published 2024)
Several values for one entry are separate records, joined by “and”; a condition that tells them apart may be missing. Equal values may be shown once. Read-outs that look alike come from different tables or passages of the source.

What was measured:
SARS2 = type: cell-based, SARS-CoV-2; conditions: for Percentage Infection Relative to Appropriate DMSO Control: Exp 3 (SMW480), avg background subtraction
WDR61 = WDR61 (Homo sapiens, UniProt Q9GZS3); assay: Surface Plasmon Resonance with pure WDR61 protein
cells (nuclei count) = conditions: for Toxicity Data: Average, Mean: average of Exp 1-3 (SMW475, SMW477, SMW478), n 9; for Toxicity Data, Percentage Relative to Appropriate DMSO Control, Mean: Average of Exp 1 and Exp 2, n=4; for Toxicity Data, Percentage Relative to Appropriate DMSO Control: single wells

COc1ccc(CNCCc2ccccc2F)c(OCC(O)CN2CCN(C)CC2)c1 (racemic) [UMB18G]
Percentage Infection Relative to Appropriate DMSO Control (SARS2; 1 uM): 54.21% and 61.59% and 57.93% | Percentage Infection Relative to Appropriate DMSO Control (SARS2; 5 uM): 19.54% and 24.35% and 30.13% | Percentage Infection Relative to Appropriate DMSO Control (SARS2; 10 uM): 53.71% and 59.47% and 34.88% | Percentage Infection Relative to Appropriate DMSO Control (SARS2; 25 uM): −0.67% and 2.60% and 2.37% | Percentage Infection Relative to Appropriate DMSO Control (SARS2; 50 uM): −1.69% and −2.08% and −2.66% | Percentage Inhibition Average 1 μM (SARS2; SARS2, 1 μM): 40.42% | Screening data (Relative infection to DMSO controls) Average 1 μM (SARS2; SARS2, 1 μM, 100=DMSO control): 59.58 | Percentage Inhibition Average 5 μM (SARS2; SARS2, 5 μM): 68.79% | Screening data (Relative infection to DMSO controls) Average 5 μM (SARS2; SARS2, 5 μM, 100=DMSO control): 31.21 | Percentage Inhibition Average 10 μM (SARS2; SARS2, 10 μM): 90.05% | Screening data (Relative infection to DMSO controls) Average 10 μM (SARS2; SARS2, 10 μM, 100=DMSO control): 9.95 | Percentage Inhibition Average 25 μM (SARS2; SARS2, 25 μM): 93.14% | Screening data (Relative infection to DMSO controls) Average 25 μM (SARS2; SARS2, 25 μM, 100=DMSO control): 6.86 | Percentage Inhibition Average 50 μM (SARS2; SARS2, 50 μM): 94.65% | Screening data (Relative infection to DMSO controls) Average 50 μM (SARS2; SARS2, 50 μM, 100=DMSO control): 5.35 | Average (relative infection to DMSO over the 5 tested concentrations) (SARS2; SARS2, average over 1 to 50 uM, 100=DMSO control): 22.59 | direct binding to WDR61 by SPR (WDR61): binding directly to WDR61 | Toxicity Data: Average, Mean (cells (nuclei count); 1 uM): 125.37% | Relative cell count to DMSO controls, Average 1 μM (cells (nuclei count); 1 μM, toxicity data, 100=DMSO control): 123.37 | Toxicity Data: Average, Mean (cells (nuclei count); 5 uM): 151.57% | Relative cell count to DMSO controls, Average 5 μM (cells (nuclei count); 5 μM, toxicity data, 100=DMSO control): 134.20 | Toxicity Data: Average, Mean (cells (nuclei count); 10 uM): 148.72% | Relative cell count to DMSO controls, Average 10 μM (cells (nuclei count); 10 μM, toxicity data, 100=DMSO control): 139.68 | Toxicity Data: Average, Mean (cells (nuclei count); 25 uM): 110.49% | Relative cell count to DMSO controls, Average 25 μM (cells (nuclei count); 25 μM, toxicity data, 100=DMSO control): 116.94 | Toxicity Data: Average, Mean (cells (nuclei count); 50 uM): 58.67% | Relative cell count to DMSO controls, Average 50 μM (cells (nuclei count); 50 μM, toxicity data, 100=DMSO control): 85.72 | Toxicity Data, Average, Mean (cells (nuclei count); Average of Exp 1-3, n 9, 1 uM): 108.03% | Toxicity Data, Average, Mean (cells (nuclei count); Average of Exp 1-3, n 9, 5 uM): 120.64% | Toxicity Data, Average, Mean (cells (nuclei count); Average of Exp 1-3, n 9, 10 uM): 114.41% | Toxicity Data, Average, Mean (cells (nuclei count); Average of Exp 1-3, n 9, 25 uM): 112.46% | Toxicity Data, Average, Mean (cells (nuclei count); Average of Exp 1-3, n 9, 50 uM): 78.15% | Toxicity Data, Percentage Relative to Appropriate DMSO Control, Mean (cells (nuclei count); 1 uM): 121.38% and 131.60% | Toxicity Data, Percentage Relative to Appropriate DMSO Control, Mean (cells (nuclei count); 5 uM): 129.65% and 137.65% | Toxicity Data, Percentage Relative to Appropriate DMSO Control, Mean (cells (nuclei count); 10 uM): 137.10% and 131.04% | Toxicity Data, Percentage Relative to Appropriate DMSO Control, Mean (cells (nuclei count); 25 uM): 118.22% and 120.31% | Toxicity Data, Percentage Relative to Appropriate DMSO Control, Mean (cells (nuclei count); 50 uM): 93.28% and 100.37% | Toxicity Data, nuclei count relative to DMSO controls (cells (nuclei count); Exp 1 (SMW454), 1 uM): 94.8% and 106.7% and 107.9% | Toxicity Data, nuclei count relative to DMSO controls (cells (nuclei count); Exp 1 (SMW454), 5 uM): 92.6% and 104.0% and 109.1% | Toxicity Data, nuclei count relative to DMSO controls (cells (nuclei count); Exp 1 (SMW454), 10 uM): 94.4% and 107.2% and 106.3% | Toxicity Data, nuclei count relative to DMSO controls (cells (nuclei count); Exp 1 (SMW454), 25 uM): 98.3% and 107.4% and 105.6% | Toxicity Data, nuclei count relative to DMSO controls (cells (nuclei count); Exp 1 (SMW454), 50 uM): 95.5% and 101.6% and 97.7% | Toxicity Data, Percentage Relative to Appropriate DMSO Control (cells (nuclei count); Exp 1 (SMW506), 10 uM): 114% and 126% and 122% | Toxicity Data, Percentage Relative to Appropriate DMSO Control (cells (nuclei count); Exp 1 (SMW506), 25 uM): 111% and 119% and 121% | Toxicity Data, nuclei count relative to DMSO controls (cells (nuclei count); Exp 2 (SMW466), 1 uM): 77.1% and 105.3% and 105.6% | Toxicity Data, nuclei count relative to DMSO controls (cells (nuclei count); Exp 2 (SMW466), 5 uM): 80.8% and 132.0% and 142.0% | Toxicity Data, nuclei count relative to DMSO controls (cells (nuclei count); Exp 2 (SMW466), 10 uM): 78.2% and 135.1% and 144.2% | Toxicity Data, nuclei count relative to DMSO controls (cells (nuclei count); Exp 2 (SMW466), 25 uM): 68.6% and 126.9% and 132.7% | Toxicity Data, Percentage Relative to Appropriate DMSO Control (cells (nuclei count); Exp 2 (SMW507), 5 uM): 144% and 156% and 158% | Toxicity Data, Percentage Relative to Appropriate DMSO Control (cells (nuclei count); Exp 2 (SMW507), 10 uM): 148% and 160% and 140% | Toxicity Data, nuclei count relative to DMSO controls (cells (nuclei count); Exp 3 (SMW480), 1 uM): 110.1% and 127.5% and 137.1% | Toxicity Data, nuclei count relative to DMSO controls (cells (nuclei count); Exp 3 (SMW480), 5 uM): 113.4% and 154.3% and 157.5% | Toxicity Data, nuclei count relative to DMSO controls (cells (nuclei count); Exp 3 (SMW480), 10 uM): 89.6% and 123.8% and 150.9% | Toxicity Data, nuclei count relative to DMSO controls (cells (nuclei count); Exp 3 (SMW480), 50 uM): 60.8% and 69.5% and 85.1% | Relative cell count to DMSO controls, Average (for correlation analysis) (cells (nuclei count); average value over the 5 tested concentrations (1 to 50 uM)): 119.98
